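Assay format: 96-well plates, 48-hour exposure. The concentration for 50% growth inhibition is given as GI50.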 Activity calls are given as the source filed them. No stated cut-off is given here; in the data, active = GI50 up to about 1.1 µM and inactive = higher.
Tests used:
Experiment in all cases: NCI anticancer screen, dose series, 48 h
TK-10 = tested on: TK-10
UACC-62 = tested on: UACC-62
DU-145 = tested on: DU-145
M14 = tested on: M14
SK-MEL-2 = tested on: SK-MEL-2
NCI-H23 = tested on: NCI-H23
ACHN = tested on: ACHN
BT-549 = tested on: BT-549
T47D = tested on: T47D
SF-268 = tested on: SF-268
EKVX = tested on: EKVX
A549 = tested on: A549
NCI-H460 = tested on: NCI-H460
SR = tested on: SR
SNB-19 = tested on: SNB-19
UACC-257 = tested on: UACC-257
RXF 393 = tested on: RXF 393
RPMI-8226 = tested on: RPMI-8226
UO-31 = tested on: UO-31
HCC 2998 = tested on: HCC 2998

Compound	GI50 (TK-10)	GI50 (UACC-62)	GI50 (DU-145)	GI50 (M14)	GI50 (SK-MEL-2)	GI50 (NCI-H23)	GI50 (ACHN)	GI50 (BT-549)	GI50 (T47D)	GI50 (SF-268)	GI50 (EKVX)	GI50 (A549)	GI50 (NCI-H460)	GI50 (SR)	GI50 (SNB-19)	GI50 (UACC-257)	GI50 (RXF 393)	GI50 (RPMI-8226)	GI50 (UO-31)	GI50 (HCC 2998)
O=[N+]([O-])/C=C/c1ccc2ccccc2c1	6.21 µM (inactive)	15.4 µM (inactive)	4.07 µM (inactive)	3.99 µM (inactive)	22.6 µM (inactive)	3.6 µM (inactive)	1.96 µM (inactive)	2.74 µM (inactive)	0.692 µM (active)	4.57 µM (inactive)	22.7 µM (inactive)	8.05 µM (inactive)	6.81 µM (inactive)	0.436 µM (active)	2.19 µM (inactive)	2.6 µM (inactive)	2.49 µM (inactive)	0.372 µM (active)	7.41 µM (inactive)	–
c1ccc2c(Cc3c[nH]c4ccccc34)c[nH]c2c1 [ARUNDINE]	19.4 µM (inactive)	> 100 µM (inactive)	18.2 µM (inactive)	16.6 µM (inactive)	22.8 µM (inactive)	13.3 µM (inactive)	> 100 µM (inactive)	18.2 µM (inactive)	15.8 µM (inactive)	28.1 µM (inactive)	14.4 µM (inactive)	20.8 µM (inactive)	19 µM (inactive)	12.4 µM (inactive)	21.7 µM (inactive)	18.5 µM (inactive)	15.6 µM (inactive)	20.2 µM (inactive)	14.1 µM (inactive)	–
O=[N+]([O-])/C(C(Cl)=C(Cl)Cl)=C1\Nc2ccc([N+](=O)[O-])cc2N1	> 100 µM (inactive)	> 100 µM (inactive)	> 100 µM (inactive)	> 100 µM (inactive)	> 100 µM (inactive)	> 100 µM (inactive)	> 100 µM (inactive)	62.2 µM (inactive)	> 100 µM (inactive)	61.8 µM (inactive)	> 100 µM (inactive)	> 100 µM (inactive)	> 100 µM (inactive)	–	> 100 µM (inactive)	> 100 µM (inactive)	–	55 µM (inactive)	14.1 µM (inactive)	–
O=C1N/C(=N/N=C/c2ccccc2)N/C1=C\c1c[nH]c2ccccc12	> 100 µM (inactive)	> 100 µM (inactive)	> 100 µM (inactive)	71.6 µM (inactive)	> 100 µM (inactive)	95.1 µM (inactive)	> 100 µM (inactive)	> 100 µM (inactive)	> 100 µM (inactive)	56.6 µM (inactive)	84.5 µM (inactive)	28 µM (inactive)	61 µM (inactive)	–	22.8 µM (inactive)	> 100 µM (inactive)	> 100 µM (inactive)	7.52 µM (inactive)	71.6 µM (inactive)	–
C[P+](c1ccccc1)(c1ccc(Cl)cc1)c1ccc(Cl)cc1	14.2 µM (inactive)	10.1 µM (inactive)	18.4 µM (inactive)	11.6 µM (inactive)	19.9 µM (inactive)	12.3 µM (inactive)	29.1 µM (inactive)	21.3 µM (inactive)	7.6 µM (inactive)	38.6 µM (inactive)	21.3 µM (inactive)	32.4 µM (inactive)	24.2 µM (inactive)	–	13 µM (inactive)	8.11 µM (inactive)	46.2 µM (inactive)	0.432 µM (active)	38 µM (inactive)	8.61 µM (inactive)
S=C(NN=C1NCCCCN1)Nc1ccc(Cl)cc1	27.3 µM (inactive)	4.52 µM (inactive)	–	8.09 µM (inactive)	22.3 µM (inactive)	18.5 µM (inactive)	7.29 µM (inactive)	64.3 µM (inactive)	39.8 µM (inactive)	14.4 µM (inactive)	31.9 µM (inactive)	11.8 µM (inactive)	3.78 µM (inactive)	11.8 µM (inactive)	77.6 µM (inactive)	14.8 µM (inactive)	> 100 µM (inactive)	7.83 µM (inactive)	9.44 µM (inactive)	18.1 µM (inactive)
CCOS(C)(=O)=O [METHANESULFONIC ACID ETHYL ESTER]	> 100 µM (inactive)	> 100 µM (inactive)	> 100 µM (inactive)	> 100 µM (inactive)	> 100 µM (inactive)	> 100 µM (inactive)	> 100 µM (inactive)	> 100 µM (inactive)	> 100 µM (inactive)	> 100 µM (inactive)	> 100 µM (inactive)	> 100 µM (inactive)	> 100 µM (inactive)	–	> 100 µM (inactive)	> 100 µM (inactive)	> 100 µM (inactive)	–	> 100 µM (inactive)	> 100 µM (inactive)
CO[C@@]12C[C@@H](CNC(=O)c3cc(Br)c[nH]3)O[C@@H]1NC(=O)N2	> 100 µM (inactive)	> 100 µM (inactive)	> 100 µM (inactive)	> 100 µM (inactive)	> 100 µM (inactive)	> 100 µM (inactive)	> 100 µM (inactive)	> 100 µM (inactive)	> 100 µM (inactive)	> 100 µM (inactive)	> 100 µM (inactive)	> 100 µM (inactive)	> 100 µM (inactive)	–	> 100 µM (inactive)	> 100 µM (inactive)	> 100 µM (inactive)	> 100 µM (inactive)	> 100 µM (inactive)	–
COc1cc(/C=N\O)cc(/C=N/O)c1O	> 100 µM (inactive)	68.1 µM (inactive)	> 100 µM (inactive)	20 µM (inactive)	25.8 µM (inactive)	> 100 µM (inactive)	26.2 µM (inactive)	45.2 µM (inactive)	26.4 µM (inactive)	35.7 µM (inactive)	60.3 µM (inactive)	> 100 µM (inactive)	40.2 µM (inactive)	26.3 µM (inactive)	47.6 µM (inactive)	74 µM (inactive)	23.6 µM (inactive)	15.5 µM (inactive)	5.94 µM (inactive)	–
CC(=O)OC1CC[C@@]2(C)C(=CC[C@@H]3[C@@H]2CC[C@]2(C)Nc4c(cnn4-c4ccc(F)cc4)C[C@@H]32)C1 (some centres undefined)	49 µM (inactive)	15.8 µM (inactive)	45.5 µM (inactive)	30.5 µM (inactive)	17.9 µM (inactive)	22.1 µM (inactive)	35.3 µM (inactive)	17.3 µM (inactive)	14.9 µM (inactive)	39.4 µM (inactive)	33.5 µM (inactive)	24.3 µM (inactive)	12.9 µM (inactive)	–	30.9 µM (inactive)	45.1 µM (inactive)	2.64 µM (inactive)	3.24 µM (inactive)	12.6 µM (inactive)	> 100 µM (inactive)
CCOP(=O)(O)C1C(CO)OC(n2ccc(=O)[nH]c2=O)C1O (centres undefined)	> 100 µM (inactive)	> 100 µM (inactive)	–	> 100 µM (inactive)	> 100 µM (inactive)	–	> 100 µM (inactive)	> 100 µM (inactive)	> 100 µM (inactive)	> 100 µM (inactive)	> 100 µM (inactive)	> 100 µM (inactive)	> 100 µM (inactive)	> 100 µM (inactive)	> 100 µM (inactive)	> 100 µM (inactive)	> 100 µM (inactive)	> 100 µM (inactive)	> 100 µM (inactive)	> 100 µM (inactive)
CC(=O)OC[C@H]1O[C@@H](O[C@H]2[C@H](OC(C)=O)C=CO[C@@H]2COC(C)=O)C(OC(C)=O)[C@H]2OC(C)(C)O[C@H]21 (some centres undefined)	> 100 µM (inactive)	> 100 µM (inactive)	–	> 100 µM (inactive)	–	> 100 µM (inactive)	> 100 µM (inactive)	36.6 µM (inactive)	64.4 µM (inactive)	> 100 µM (inactive)	> 100 µM (inactive)	> 100 µM (inactive)	> 100 µM (inactive)	43.3 µM (inactive)	> 100 µM (inactive)	> 100 µM (inactive)	2.43 µM (inactive)	–	> 100 µM (inactive)	> 100 µM (inactive)
CC(C)=CC1C(COC(=O)c2cc3c(cc2Cl)OCO3)C1(C)C (centres undefined)	> 100 µM (inactive)	36.1 µM (inactive)	28.4 µM (inactive)	38.7 µM (inactive)	18.6 µM (inactive)	33.3 µM (inactive)	33.1 µM (inactive)	33 µM (inactive)	39.1 µM (inactive)	19.3 µM (inactive)	30.4 µM (inactive)	34.2 µM (inactive)	33 µM (inactive)	21.3 µM (inactive)	95.7 µM (inactive)	40.3 µM (inactive)	20.8 µM (inactive)	–	54.2 µM (inactive)	–
S=C(Nc1ccccc1)c1ccc(CN2CCCCC2)s1	–	18.7 µM (inactive)	60.1 µM (inactive)	16 µM (inactive)	20.5 µM (inactive)	19.4 µM (inactive)	45 µM (inactive)	21.4 µM (inactive)	26.4 µM (inactive)	26.4 µM (inactive)	41.8 µM (inactive)	29.6 µM (inactive)	21.6 µM (inactive)	15.6 µM (inactive)	20.2 µM (inactive)	19.4 µM (inactive)	–	21.7 µM (inactive)	16.2 µM (inactive)	21.8 µM (inactive)
N#CC1CNC(N)NC1N (centres undefined)	> 100 µM (inactive)	> 100 µM (inactive)	> 100 µM (inactive)	> 100 µM (inactive)	> 100 µM (inactive)	> 100 µM (inactive)	> 100 µM (inactive)	> 100 µM (inactive)	> 100 µM (inactive)	> 100 µM (inactive)	> 100 µM (inactive)	> 100 µM (inactive)	> 100 µM (inactive)	34 µM (inactive)	> 100 µM (inactive)	> 100 µM (inactive)	> 100 µM (inactive)	> 100 µM (inactive)	–	–

Source: ChEMBL document CHEMBL1201862, “PubChem BioAssay data set” (2004)
